Laboratory results from US7220832B2, “Dermacentor variabilis GABA-gated chloride channels” (priority 2000, dated 2007).

Tested on: D. variabilis GABA-gated chloride channel
Test: Two-microelectrode voltage clamp recording of Xenopus laevis oocytes injected with Dv8, Dv9 or Dv5 mRNA
Type: cell-based, Dermacentor variabilis
Conditions: for current in response to application of compound: 1 mM, oocytes expressing Dv8 and Dv9 (SEQ. ID. NOs. 1 and 2), holding potential 0 or -30 mV; for block of the GABA-activated current: current activated by 1 mM GABA
Protocol: Functional expression of a D. variabilis GABA-gated chloride channel was observed using MRNA encoding for the polypeptide of SEQ. ID. NOs. 1, 2, and 3 injected into Xenopus laevis oocytes. MRNA encoding for SEQ. ID. NOs. 1, 2, and 3 were obtained using the Dv8, Dv9, and Dv5 clones as described in Example 1.
Xenopus laevis oocytes were prepared and injected using standard methods previously described. (Arena et al., Mol. Pharmaco. 40:368-374, 1991; and Arena et al., Mol. Brain Res. 15:339-348, 1992.) Adult female Xenopus laevis were anesthetized with 0.17% tricaine methanesulfonate and the ovaries were surgically removed and placed in a solution consisting of (mM): NaCl 82.5, KCl 2, MgCl2 1, HEPES 5, NaPyruvate 2.5, Penicillin G. 100,000 units/L, Streptomycin Sulfate 1000 mg/L, pH 7.5 (Mod. OR-2).
Ovarian lobes were broken open, rinsed several times in Mod. OR-2, and incubated in 0.2% collagenase (Sigma, Type1) in Mod. OR-2 at room temperature with gentle shaking. After 1 hour the collagenase solution was renewed and the oocytes were incubated for an additional 30-90 minutes until approximately 50% of the oocytes were released from the ovaries. Stage V and VI oocytes were selected and placed in media containing (mM): NaCl 96, KCl 2, MgCl2 1, CaCl2 1.8, HEPES 5, NaPyruvate 2.5, theophylline 0.5, gentamicin […], pH 7.5 (ND-96) for 16-24 hours before injection. Oocytes were injected with 50 nl of Dv8, Dv9, or Dv5 RNA at a concentration of 0.2 mg/ml. Oocytes were incubated at 18° C. for 1-6 days in ND-96 before recording.
Recordings were made at room temperature in modified ND-96 consisting of (mM): NaCl 96, MgCl2 1, CaCl2 0.1, BaCl2 3.5, HEPES 5, pH 7.5. Oocytes were voltage clamped using a Dagan CA1 two microelectrode amplifier (Dagan Corporation, Minneapolis, Minn.) interfaced to a Macintosh 7100/80 computer. The current passing electrode was filled with 0.7 M KCl, 1.7 M KCitrate, and the voltage recording electrode was filled with 1 M KCl. Throughout the experiment oocytes were superfused with modified ND-96 (control solution) or with ND-96 containing potential channel activators and blockers at a rate of approximately 3 ml/min. Data were acquired at 100 Hz and filtered at 33.3 Hz using Pulse software from HEKA Elektronik (Lambrecht, Germany). All recordings were performed from a holding potential of either 0 or −30 mV.
During a 60s application of GABA approximately 50% of the current desensitized and the remaining current deactivated rapidly upon wash-out of GABA. Repeated applications of 1 mM GABA elicited similar responses. […] Oocytes injected with Dv5 mRNA responded similarly to oocytes injected with Dv8 and Dv9 mRNA (data not shown).

N[C@@H](CCC(=O)O)C(=O)O [glutamate]
current in response to application of compound: did not activate a current

C=C(C)[C@@H]1[C@H]2OC(=O)[C@@H]1[C@]1(O)C[C@H]3O[C@]34C(=O)O[C@H]2[C@]14C [picrotoxinin]
block of the GABA-activated current (10 μM, data not shown): blocked completely

N#Cc1nn(-c2c(Cl)cc(C(F)(F)F)cc2Cl)c(N)c1[S+]([O-])C(F)(F)F (centres unmarked) [fipronil]
block of the GABA-activated current (5 μM, FIG. 5, channel of SEQ. ID. NO. 2 (Dv9)): blocked completely

NCCCC(=O)O [GABA, γ-Aminobutric acid]
current in response to application of compound: rapidly activating current | fraction of the current desensitized during application (60s application of 1 mM GABA, oocytes expressing Dv8 and Dv9): approximately 50%
